The values below are quoted from earlier work in patent US5723589A, “Carbohydrate conjugated bio-active compounds” (ICN Pharmaceuticals, priority 1995, dated 1998).

Data set [1] has as its system GLUT-1 in normal 3T3 fibroblasts. Conditions: Endocrinology 1990, 126, 2778; cited from earlier work.
The test system of the next data set is GLUT-1 in cancer cells. Conditions: inhibition of GLUT-1 functioning by binding; cited from earlier work.
Another data set concerns blood brain barrier. Conditions: concentrated solutions infused into the carotid arteries; cited from earlier work.

Regarding Sodium vanadate, in data set [1], the GLUT-1 expression entry is recorded as “able to induce GLUT-1 expression” and the “extension of the half-life of GLUT-1 mRNA” value is listed as 2-3 times.

On to `Cc1ccc(C(=O)Nc2ccc(S(=O)(=O)O)c3cc(S(=O)(=O)O)cc(S(=O)(=O)O)c23)cc1NC(=O)c1cccc(NC(=O)Nc2cccc(C(=O)Nc3cc(C(=O)Nc4ccc(S(=O)(=O)O)c5cc(S(=O)(=O)O)cc(S(=O)(=O)O)c45)ccc3C)c2)c1` [suramin], for which the “glucose uptake and growth rate of the treated cells” value with GLUT-1 in cancer cells was “significantly limits glucose uptake and the growth rate of the treated cells”. Turning to `OC[C@@H](O)[C@@H](O)[C@H](O)[C@H](O)CO` [mannitol], the “disruption of the blood brain barrier” value with blood brain barrier was “disrupt the blood brain barrier long enough to allow methotrexate and other potent chemotherapeutic agents to penetrate brain tumors”.
